US20250129055A1, “GLUCOSIDE DERIVATIVE, AND PREPARATION METHOD THEREFOR AND APPLICATION THEREOF” (BEIJING INCREASE INNOVATIVE DRUG CO., LTD., priority 2020, published 2025)

Tests used:
SGLT2 = SGLT2 (Homo sapiens (Human), UniProt P31639); experiment: In vitro SGLT2 inhibitory activity: 1-NBDG uptake by CHO-SGLT2 cells; assay type: cell-based
Description: The effect of the compounds on SGLT2-mediated glucose uptake was investigated by establishing an SGLT2 overexpression cell model and using the fluorescent glucose (2-deoxy-1-[(7-nitro-2,1,3-benzoxadiazol-4-yl)amino]-D-glucose, 1-NBDG) tracer method to screen out candidate compounds with SGLT2 inhibitory activity.
The humanized SGLT2 overexpression cells (CHO-SGLT2) constructed from Chinese hamster ovary (CHO) cells were cultured in 1640 medium (Gibco) containing 10% fetal bovine serum (Gibco, 10270), subcultured at a ratio of 1:3, and replaced with new culture medium 3 times every week. Fluorescence detection cell culture plates and other culture flasks were purchased from Corning Company. […] Appropriate amounts of all compounds were weighed, prepared into 100 mM stock solutions with DMSO, and stored at 4° C. in the dark.
Before the 1-NBDG uptake test, CHO-SGLT2 cells were digested and seeded in a 96-well cell culture plate with a cell number of 40,000/well. After the cells were cultured for 48 h, the medium was discarded, and 100 μl of choline buffer was added to each well. After the cells were starved at 37° C. for 30 min, the choline buffer was discarded and 100 μl of the newly prepared Na^+ sodium buffer containing […] 1-NBDG and the test compounds (Compound) was added. The solvent DMSO was used as the negative control (Control) for the test compounds.
The Na^+ sodium buffer without 1-NBDG was used as the blank control (Blank). After 1 h of culture, the incubation solution was discarded. The cells were washed with choline buffer solution 3 times, and then 50 μl of neutral lysate was added to each well to lyse the cells on ice for 10 min. The fluorescence value of each well was detected using a multi-functional microplate reader at […].
At least 3 experimental replicates were set for each compound at indicated concentrations, and the data were expressed as mean±SEM. Uptake amount of 1-NBDG by cells=fluorescence value1-NBDG-fluorescence valueBlank. Inhibition rate on uptake amount of SGLT2 glucose (%)=(uptake amountcontrol−uptake amountcompound)/uptake amountcontrol×100%. Concentration-inhibition rate curves were plotted using Graphpad Prism software, and IC50 values were calculated accordingly.

normal ICR mice = experiment: Blood glucose level of normal mice after oral administration of glucose; assay type: in vivo; conditions: for Blood glucose 0 min: 0 min (fasting, 1 h after dosing); for Blood glucose 30 min: 30 min after glucose 2.0 g/kg; for Blood glucose 60 min: 60 min after glucose 2.0 g/kg; for Blood glucose 120 min: 120 min after glucose 2.0 g/kg; for AUC of blood glucose: oral glucose 2.0 g/kg; for Reduction of the area under the curve (AUC) of blood glucose: vs. normal control group
Description: Test Example 2 Evaluation of the in vivo activity of the compounds of the present invention: the effect on the blood glucose level of normal mice after oral administration of glucose
ICR mice (male, 18-20 g), purchased from Beijing Vital River Laboratories Co., Ltd., were fed adaptively for 4 days, and randomly divided into 4 groups, namely normal control group, positive control group, and two groups of test compounds, with 8 mice in each group.
The aforementioned stock solutions were diluted to appropriate concentrations with double distilled water.
The mice were fasted overnight. […] After 1 h, blood was collected at 0 min (fasting), and then mice in each group were administered with glucose (2.0 g/kg) solution by gavage. Blood was collected at 30 min, 60 min, and 120 min after glucose administration. The blood glucose level was measured using glucose oxidase-peroxidase method, and the area under the blood glucose curve was calculated.
The data were expressed as mean±SD. The comparison between multiple groups was performed by one-way analysis of variance, and the comparison between two groups was performed by Dunnett's t test. Statistical graphing was performed using Graphpad Prism software.

[1] = system: spontaneous type 2 diabetes mellitus db/db mice; experiment: Pharmacodynamic effect on spontaneous type 2 diabetes mellitus db/db mice; assay type: in vivo; conditions: for AUC of blood glucose: 0-24 h; for Concentration of blood glucose 0 h / Concentration of blood glucose 1 h / Concentration of blood glucose 2 h / Concentration of blood glucose 4 h / Concentration of blood glucose 6 h / Concentration of blood glucose 8 h / Concentration of blood glucose 24 h: fasting; for Concentration of blood glucose 0 h: 0 h before administration; for HbA1c: 28th day; for Random blood glucose, the 22nd day (title: 28th day): column head 22nd day
Description: Test example 4 Pharmacodynamic effect of the compounds of the present invention on spontaneous type 2 diabetes mellitus db/db mice
Spontaneous type 2 diabetes mellitus db/db mice and the normal control db/m mice (male, 5-6 weeks old) were used. The db/db mice were randomly divide into […] based on random blood glucose, fasting blood glucose, percentage of blood glucose reduction at 40 min, blood triglycerides, total blood cholesterol, and body weight, which were model group (con), positive control group and three groups of test compound with different doses (n=10).
Mice were administered with drugs by gavage.
The mice were fasted for 2 h, and then the 0 h (fasting) blood samples were collected. Then the mice in each group were administered with drugs by gavage, and blood samples were collected at 1 h, 2 h, 4 h, 6 h, 8 h and 24 h after administration. The blood glucose level was measured using glucose oxidase-peroxidase method, and the area under the blood glucose curve was calculated. Moreover, urine samples were collected 2 h and 4 h after administration to determine the concentration of urine glucose.
On the 15th day of continuous administration, before the mice were fasted, blood samples were collected to measure the random blood glucose. Then the mice were fasted and administered with the compounds, and after 2 h, blood samples were collected to measure the fasting blood glucose. […]
The data were expressed as mean±SEM (n=10). The comparison between multiple groups was performed by one-way analysis of variance, and the comparison between two groups was performed by Dunnett's t test. Statistical graphing was performed using Graphpad Prism software.

[2] = 0.5 mg/kg single administration
[3] = 1.0 mg/kg single administration
[4] = 2.0 mg/kg single administration
[5] = 22nd day of continuous administration, 0.5, 1.0 and 2.0 mg/kg

Sequence of SGLT2 (P31639 whole entry): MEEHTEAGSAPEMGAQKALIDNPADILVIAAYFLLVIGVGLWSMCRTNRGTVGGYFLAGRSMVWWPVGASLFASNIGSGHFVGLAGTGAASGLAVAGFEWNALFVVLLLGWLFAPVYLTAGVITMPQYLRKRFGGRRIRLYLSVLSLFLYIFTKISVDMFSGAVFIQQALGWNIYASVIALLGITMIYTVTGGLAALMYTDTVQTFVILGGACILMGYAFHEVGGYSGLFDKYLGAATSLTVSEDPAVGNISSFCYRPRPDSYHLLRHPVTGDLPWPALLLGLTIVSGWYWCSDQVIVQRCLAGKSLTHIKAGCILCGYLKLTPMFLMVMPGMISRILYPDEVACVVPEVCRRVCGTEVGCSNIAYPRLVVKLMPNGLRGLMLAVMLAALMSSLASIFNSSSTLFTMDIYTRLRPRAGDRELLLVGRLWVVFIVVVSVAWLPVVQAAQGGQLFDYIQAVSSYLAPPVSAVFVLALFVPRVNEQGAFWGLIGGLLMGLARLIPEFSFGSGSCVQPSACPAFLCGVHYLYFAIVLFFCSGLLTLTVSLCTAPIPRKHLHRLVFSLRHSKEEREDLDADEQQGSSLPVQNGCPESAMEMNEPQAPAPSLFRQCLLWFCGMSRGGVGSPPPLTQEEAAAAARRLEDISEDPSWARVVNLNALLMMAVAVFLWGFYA

For CS[C@H]1O[C@@H](c2ccc(C)c(Cc3ccc4c(c3)OCCO4)c2)[C@H](O)[C@@H](O)[C@@H]1O (stereo in doubt) [Compound 2, 2-[3-(2,3-dihydro-1,4-benzodioxin-6-ylmethyl)-4-methylphenyl]-6-(methylthio)oxane-3,4,5-triol], the IC50 (SGLT2; CHO-SGLT2 cells, 1-NBDG uptake, read-out: IC50 inhibiting SGLT2) was 0.105 nM, the inhibition at 1 µM (SGLT2; compound concentration 1 × 10^−6 mol/L, read-out: Inhibition rate of compounds on SGLT2 (%)) was 107 ± 1.1% and the inhibition at 0.0001 µM (SGLT2; compound concentration 1 × 10^−10 mol/L, read-out: Inhibition rate of compounds on SGLT2 (%)) was 40.6 ± 1%. The inhibition at 10 pM (SGLT2; compound concentration 1 × 10^−11 mol/L, read-out: Inhibition rate of compounds on SGLT2 (%)) was 0%, the inhibition at 1 pM (SGLT2; compound concentration 1 × 10^−12 mol/L, read-out: Inhibition rate of compounds on SGLT2 (%)) was 0.3 ± 6.4% and the inhibition at 0.5 µM (SGLT2; compound concentration 5 × 10^−7 mol/L, read-out: Inhibition rate of compounds on SGLT2 (%)) was 81.6 ± 2.5%. For the same molecule, the inhibition at 0.005 µM (SGLT2; compound concentration 5 × 10^−9 mol/L, read-out: Inhibition rate of compounds on SGLT2 (%)) was 80.7 ± 3%, the inhibition at 0.0005 µM (SGLT2; compound concentration 5 × 10^−10 mol/L, read-out: Inhibition rate of compounds on SGLT2 (%)) was 61.9 ± 3.6% and the inhibition at 50 pM (SGLT2; compound concentration 5 × 10^−11 mol/L, read-out: Inhibition rate of compounds on SGLT2 (%)) was 39.2 ± 2.1%. The “Blood glucose 0 min” value (normal ICR mice; 2 mg/kg by gavage) was 75.9 ± 6.7 mg/dL, the “Blood glucose 30 min” value (normal ICR mice; 2 mg/kg by gavage) was 207.8 ± 13.6 mg/dL and the “Blood glucose 60 min” value (normal ICR mice; 2 mg/kg by gavage) was 119.3 ± 12.5 mg/dL. The “Blood glucose 120 min” value (normal ICR mice; 2 mg/kg by gavage) was 73.0 ± 11.4 mg/dL, the “AUC of blood glucose” value (normal ICR mice; 2 mg/kg by gavage) was 248.8 ± 18.0 mg·h/dL and the “Reduction of the area under the curve (AUC) of blood glucose” value (normal ICR mice; 2 mg/kg) was 37.4%. The “Blood glucose 0 min” value (normal ICR mice; 4 mg/kg by gavage) was 63.6 ± 8.3 mg/dL, the “Blood glucose 30 min” value (normal ICR mice; 4 mg/kg by gavage) was 189.5 ± 14.3 mg/dL and the “Blood glucose 60 min” value (normal ICR mice; 4 mg/kg by gavage) was 103.2 ± 5.1 mg/dL. For the same molecule, the “Blood glucose 120 min” value (normal ICR mice; 4 mg/kg by gavage) was 78.2 ± 13.9 mg/dL, the “AUC of blood glucose” value (normal ICR mice; 4 mg/kg by gavage) was 227.1 ± 13.1 mg·h/dL and the “Reduction of the area under the curve (AUC) of blood glucose” value (normal ICR mice; 4 mg/kg) was 42.9%. The “AUC of blood glucose” value [1, 2] was 7046 ± 253.0 mg·h/dL, the “Concentration of blood glucose 0 h” value [1, 2] was 486.3 ± 32.9 mg/dL and the “Concentration of blood glucose 1 h” value [1, 2] was 386.8 ± 22.3 mg/dL. For the same molecule, the “Concentration of blood glucose 2 h” value [1, 2] was 362.7 ± 27.2 mg/dL, the “Concentration of blood glucose 4 h” value [1, 2] was 252.3 ± 9.7 mg/dL and the “Concentration of blood glucose 6 h” value [1, 2] was 169.3 ± 4.4 mg/dL. The “Concentration of blood glucose 8 h” value [1, 2] was 134.2 ± 4.6 mg/dL, the “Concentration of blood glucose 24 h” value [1, 2] was 477.7 ± 25.9 mg/dL and the “Fasting blood glucose, the 15th day” value ([1]; 0.5 mg/kg) was 185.0 ± 13.6 mg/dL. For the same molecule, the “Random blood glucose, the 15th day” value ([1]; 0.5 mg/kg) was 307.9 ± 18.4 mg/dL, the “Fasting blood glucose, the 22nd day” value ([1]; 0.5 mg/kg) was 193.8 ± 14.7 mg/dL and the HbA1c ([1]; 0.5 mg/kg) was 4.7 ± 0.3 %. The “Random blood glucose, the 22nd day (title: 28th day)” value (“Random blood glucose, the 22nd day” for short) ([1]; 0.5 mg/kg) was 272.4 ± 16.5 mg/dL, the “AUC of blood glucose” value [1, 3] was 6952 ± 295.8 mg·h/dL and the “Concentration of blood glucose 0 h” value [1, 3] was 552.2 ± 24.2 mg/dL. For the same molecule, the “Concentration of blood glucose 1 h” value [1, 3] was 412.5 ± 13.1 mg/dL, the “Concentration of blood glucose 2 h” value [1, 3] was 362.3 ± 23.7 mg/dL and the “Concentration of blood glucose 4 h” value [1, 3] was 256.0 ± 10.1 mg/dL. The “Concentration of blood glucose 6 h” value [1, 3] was 161.8 ± 6.9 mg/dL, the “Concentration of blood glucose 8 h” value [1, 3] was 124.3 ± 5.8 mg/dL and the “Concentration of blood glucose 24 h” value [1, 3] was 470.7 ± 25.6 mg/dL. The “Fasting blood glucose, the 15th day” value ([1]; 1.0 mg/kg) was 197.9 ± 11.2 mg/dL, the “Random blood glucose, the 15th day” value ([1]; 1.0 mg/kg) was 322.7 ± 11.1 mg/dL and the “Fasting blood glucose, the 22nd day” value ([1]; 1.0 mg/kg) was 204.1 ± 12.2 mg/dL. For the same molecule, the HbA1c ([1]; 1.0 mg/kg) was 4.8 ± 0.2 %, the “Random blood glucose, the 22nd day” value ([1]; 1.0 mg/kg) was 258.4 ± 12.8 mg/dL and the “AUC of blood glucose” value [1, 4] was 6507 ± 269.6 mg·h/dL. The “Concentration of blood glucose 0 h” value [1, 4] was 519.3 ± 30.7 mg/dL, the “Concentration of blood glucose 1 h” value [1, 4] was 377.0 ± 9.0 mg/dL and the “Concentration of blood glucose 2 h” value [1, 4] was 309.7 ± 13.1 mg/dL. For the same molecule, the “Concentration of blood glucose 4 h” value [1, 4] was 259.0 ± 14.9 mg/dL, the “Concentration of blood glucose 6 h” value [1, 4] was 153.3 ± 10.7 mg/dL and the “Concentration of blood glucose 8 h” value [1, 4] was 129.5 ± 12.8 mg/dL. The “Concentration of blood glucose 24 h” value [1, 4] was 427.0 ± 20.2 mg/dL, the “Fasting blood glucose, the 15th day” value ([1]; 2.0 mg/kg) was 162.7 ± 12.1 mg/dL and the “Random blood glucose, the 15th day” value ([1]; 2.0 mg/kg) was 240.4 ± 16.4 mg/dL. For the same molecule, the “Fasting blood glucose, the 22nd day” value ([1]; 2.0 mg/kg) was 159.5 ± 8.5 mg/dL, the HbA1c ([1]; 2.0 mg/kg) was 4.0 ± 0.2 % and the “Random blood glucose, the 22nd day” value ([1]; 2.0 mg/kg) was 194.7 ± 14.0 mg/dL. For the same molecule, the “Blood triglycerides (TG) level” value [1, 5] was “significantly lower”, the “Concentration of blood cholesterol” value [1, 5] was “no effect” and the “Concentration of urine glucose” value ([1]; 2 h after single administration, 0.5, 1.0 and 2.0 mg/kg) was “increased”. The “Concentration of urine glucose” value ([1]; 4 h after single administration, 0.5, 1.0 and 2.0 mg/kg) was “not increased”, the “Effect on body weight, food intake and water intake” value ([1]; continuous administration, 0.5, 1.0 and 2.0 mg/kg) was “no significant effect” and the “Duration of blood glucose lowering” value ([1]; single administration, 0.5, 1.0 and 2.0 mg/kg) was “up to 24 h”.
